Measurements: patent US9975878B2, “Substituted triazine BMI-1 inhibitors” (PTC Therapeutics, Inc., priority 2013, dated 2018)

What was measured:
Bmi-1 protein = assay: Sandwich ELISA Assay: Bmi-1 protein level in HT-1080 cells treated with test compounds; type: cell-based
Method in brief: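 HT-1080 cells exposed to compounds (final DMSO 0.5%) for 40-48 h at 37° C, 5% CO2, then lysed. Bmi-1 quantified by sandwich ELISA (mouse anti-Bmi-1 capture, rabbit anti-Bmi-1 detection, HRP anti-rabbit, TMB), read at OD450 with OD570 reference, against recombinant GST-Bmi-1 standard curve (0-8000 pg/mL).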

Row | Compound | melting point [°C] | EC50 (Bmi-1 protein) [nM]
1 | Nc1nc(Nc2ccc(OC(F)F)c(F)c2)nc(-n2c(C3CC3)nc3c(F)cc(F)cc32)n1 [Cpd 90, 6-(2-cyclopropyl-4,6-difluoro-1H-benzimidazol-1-yl)-N-[4-(difluoromethoxy)-3-fluorophenyl]-1,3,5-triazine-2,4-diamine] | 196 to 198 | 10 to 100
2 | Nc1nc(Nc2ccc(OC(F)F)cc2)nc(-n2c(C(F)F)nc3ccccc32)n1 [Cpd 103, N-[4-(difluoromethoxy)phenyl]-6-[2-(difluoromethyl)-1H-benzimidazol-1-yl]-1,3,5-triazine-2,4-diamine] | 197 to 199 | 10 to 100
3 | Nc1nc(Nc2ccc(OC(F)F)c(F)c2)nc(-n2c(CF)nc3ccccc32)n1 [Cpd 109, N-[4-(difluoromethoxy)-3-fluorophenyl]-6-[2-(fluoromethyl)-1H-benzimidazol-1-yl]-1,3,5-triazine-2,4-diamine] | 166 to 168 | 10 to 100
4 | Cc1nc2ccc(F)cc2n1-c1nc(N)nc(Nc2ccc(Cl)c(F)c2)n1 [Cpd 201, N-(4-chloro-3-fluorophenyl)-6-(6-fluoro-2-methyl-1H-benzimidazol-1-yl)-1,3,5-triazine-2,4-diamine] | – | 100 to 3000
5 | Cc1nc2ccccc2n1-c1cnnc(Nc2ccc(OC(F)F)cc2)n1 [Cpd 202, N-[4-(difluoromethoxy)phenyl]-5-(2-methyl-1H-benzimidazol-1-yl)-1,2,4-triazin-3-amine] | – | 100 to 3000
6 | COc1ccc(Nc2nncc(-n3c(C)nc4ccccc43)n2)cc1 [Cpd 204, N-(4-methoxyphenyl)-5-(2-methyl-1H-benzimidazol-1-yl)-1,2,4-triazin-3-amine] | – | 1 to 10
7 | CCc1nc2ccccc2n1-c1cnnc(Nc2ccc(OC)cc2)n1 [Cpd 205, 5-(2-ethyl-1H-benzimidazol-1-yl)-N-(4-methoxyphenyl)-1,2,4-triazin-3-amine] | – | 1 to 10
8 | CCc1nc2ccccc2n1-c1nc(N)nc(Nc2ccc(Br)cc2)n1 [Cpd 207, N-(4-bromophenyl)-6-(2-ethyl-1H-benzimidazol-1-yl)-1,3,5-triazine-2,4-diamine] | – | 1 to 10
9 | CCc1nc2c(F)cc(F)cc2n1-c1nc(N)nc(Nc2ccc(Br)cc2)n1 [Cpd 209, N-(4-bromophenyl)-6-(2-ethyl-4,6-difluoro-1H-benzimidazol-1-yl)-1,3,5-triazine-2,4-diamine] | – | 1 to 10
10 | Cc1nc2cc(F)c(F)cc2n1-c1nc(N)nc(Nc2ccc(Br)cc2)n1 [Cpd 210, N-(4-bromophenyl)-6-(5,6-difluoro-2-methyl-1H-benzimidazol-1-yl)-1,3,5-triazine-2,4-diamine] | – | 10 to 100
11 | CCc1nc2c(F)cccc2n1-c1nc(N)nc(Nc2ccc(Cl)cc2)n1 [Cpd 214, N-(4-chlorophenyl)-6-(2-ethyl-4-fluoro-1H-benzimidazol-1-yl)-1,3,5-triazine-2,4-diamine] | – | 10 to 100
12 | CCc1nc2c(F)cccc2n1-c1nc(N)nc(Nc2ccc(Br)cc2)n1 [Cpd 216, N-(4-bromophenyl)-6-(2-ethyl-4-fluoro-1H-benzimidazol-1-yl)-1,3,5-triazine-2,4-diamine] | – | 1 to 10
13 | CCc1nc2ccccc2n1-c1cnnc(Nc2ccc(C)cc2)n1 [Cpd 218, 5-(2-ethyl-1H-benzimidazol-1-yl)-N-(4-methylphenyl)-1,2,4-triazin-3-amine] | – | 1 to 10
14 | Nc1nc(Nc2ccc(Br)cc2)nc(-n2c(C3CC3)nc3c(F)cccc32)n1 [Cpd 220, N-(4-bromophenyl)-6-(2-cyclopropyl-4-fluoro-1H-benzimidazol-1-yl)-1,3,5-triazine-2,4-diamine] | – | 10 to 100
15 | Nc1nc(Nc2ccc(Br)cc2)nc(-n2c(C3CC3)nc3cc(F)ccc32)n1 [Cpd 222, N-(4-bromophenyl)-6-(2-cyclopropyl-5-fluoro-1H-benzimidazol-1-yl)-1,3,5-triazine-2,4-diamine] | – | 10 to 100
16 | CSc1ccc(Nc2nc(N)nc(-n3c(C)nc4ccc(F)cc43)n2)cc1 [Cpd 226, 6-(6-fluoro-2-methyl-1H-benzimidazol-1-yl)-N-[4-(methylsulfanyl)phenyl]-1,3,5-triazine-2,4-diamine] | – | 10 to 100

Continued, values first:

Row | melting point [°C] | EC50 (Bmi-1 protein) [nM] | Compound
17 | 181 to 183 | 10 to 100 | Nc1nc(Nc2ccc(OC(F)F)cc2)nc(-n2c(C3CC3)nc3c(F)cc(F)cc32)n1 [Cpd 89, 6-(2-cyclopropyl-4,6-difluoro-1H-benzimidazol-1-yl)-N-[4-(difluoromethoxy)phenyl]-1,3,5-triazine-2,4-diamine]
18 | 128 to 130 | 10 to 100 | Nc1nc(Nc2ccc(OC(F)F)nc2)nc(-n2c(C3CC3)nc3c(F)cc(F)cc32)n1 [Cpd 91, 6-(2-cyclopropyl-4,6-difluoro-1H-benzimidazol-1-yl)-N-[6-(difluoromethoxy)pyridin-3-yl]-1,3,5-triazine-2,4-diamine]
19 | 213 to 215 | 100 to 3000 | Nc1nc(Nc2ccc(OC(F)(F)F)cc2)nc(-n2c(C3CC3)nc3c(F)cc(F)cc32)n1 [Cpd 92, 6-(2-cyclopropyl-4,6-difluoro-1H-benzimidazol-1-yl)-N-[4-(trifluoromethoxy)phenyl]-1,3,5-triazine-2,4-diamine]
20 | 197 to 199 | 10 to 100 | Nc1nc(Nc2ccc(C(F)(F)F)cc2)nc(-n2c(C(F)F)nc3ccccc32)n1 [Cpd 102, 6-[2-(difluoromethyl)-1H-benzimidazol-1-yl]-N-[4-(trifluoromethyl)phenyl]-1,3,5-triazine-2,4-diamine]
21 | 201 to 203 | 10 to 100 | Nc1nc(Nc2ccc(OC(F)F)c(F)c2)nc(-n2c(C(F)F)nc3ccccc32)n1 [Cpd 104, N-[4-(difluoromethoxy)-3-fluorophenyl]-6-[2-(difluoromethyl)-1H-benzimidazol-1-yl]-1,3,5-triazine-2,4-diamine]
22 | 138 to 139 | 10 to 100 | Nc1nc(Nc2ccc(OC(F)(F)F)cc2)nc(-n2c(C(F)F)nc3ccccc32)n1 [Cpd 106, 6-[2-(difluoromethyl)-1H-benzimidazol-1-yl]-N-[4-(trifluoromethoxy)phenyl]-1,3,5-triazine-2,4-diamine]
23 | 166 to 168 | 10 to 100 | Nc1nc(Nc2ccc(OC(F)F)cc2)nc(-n2c(CF)nc3ccccc32)n1 [Cpd 108, N-[4-(difluoromethoxy)phenyl]-6-[2-(fluoromethyl)-1H-benzimidazol-1-yl]-1,3,5-triazine-2,4-diamine]
24 | 178 to 180 | 100 to 3000 | Nc1nc(Nc2ccc(C(F)(F)F)nc2)nc(-n2c(CF)nc3ccccc32)n1 [Cpd 111, 6-[2-(fluoromethyl)-1H-benzimidazol-1-yl]-N-[6-(trifluoromethyl)pyridin-3-yl]-1,3,5-triazine-2,4-diamine]
25 | – | 10 to 100 | CCc1nc2ccccc2n1-c1cnnc(Nc2ccc(OC(F)F)cc2)n1 [Cpd 203, N-[4-(difluoromethoxy)phenyl]-5-(2-ethyl-1H-benzimidazol-1-yl)-1,2,4-triazin-3-amine]
26 | – | 1 to 10 | Cc1nc2ccccc2n1-c1nc(N)nc(Nc2ccc(Br)cc2)n1 [Cpd 206, N-(4-bromophenyl)-6-(2-methyl-1H-benzimidazol-1-yl)-1,3,5-triazine-2,4-diamine]
27 | – | 10 to 100 | Cc1nc2c(F)cc(F)cc2n1-c1nc(N)nc(Nc2ccc(Br)cc2)n1 [Cpd 208, N-(4-bromophenyl)-6-(4,6-difluoro-2-methyl-1H-benzimidazol-1-yl)-1,3,5-triazine-2,4-diamine]
28 | – | 10 to 100 | Cc1nc2ccc(F)cc2n1-c1nc(N)nc(Nc2ccc(Br)cc2)n1 [Cpd 211, N-(4-bromophenyl)-6-(6-fluoro-2-methyl-1H-benzimidazol-1-yl)-1,3,5-triazine-2,4-diamine]
29 | – | 1 to 10 | CCc1nc2c(F)cccc2n1-c1nc(N)nc(Nc2ccc(OC)cc2)n1 [Cpd 212, 6-(2-ethyl-4-fluoro-1H-benzimidazol-1-yl)-N-(4-methoxyphenyl)-1,3,5-triazine-2,4-diamine]
30 | – | 1 to 10 | CCc1nc2c(F)cccc2n1-c1nc(N)nc(Nc2ccc(C)cc2)n1 [Cpd 213, 6-(2-ethyl-4-fluoro-1H-benzimidazol-1-yl)-N-(4-methylphenyl)-1,3,5-triazine-2,4-diamine]
31 | – | 10 to 100 | CCc1nc2c(F)cccc2n1-c1nc(N)nc(Nc2ccc(Cl)c(F)c2)n1 [Cpd 215, N-(4-chloro-3-fluorophenyl)-6-(2-ethyl-4-fluoro-1H-benzimidazol-1-yl)-1,3,5-triazine-2,4-diamine]
32 | – | 1 to 10 | Cc1ccc(Nc2nncc(-n3c(C)nc4ccccc43)n2)cc1 [Cpd 217, 5-(2-methyl-1H-benzimidazol-1-yl)-N-(4-methylphenyl)-1,2,4-triazin-3-amine]
33 | – | 10 to 100 | Cc1nc2c(F)cccc2n1-c1nc(N)nc(Nc2ccc(Br)cc2)n1 [Cpd 219, N-(4-bromophenyl)-6-(4-fluoro-2-methyl-1H-benzimidazol-1-yl)-1,3,5-triazine-2,4-diamine]
34 | – | 10 to 100 | CCc1nc2cc(F)ccc2n1-c1nc(N)nc(Nc2ccc(Br)cc2)n1 [Cpd 221, N-(4-bromophenyl)-6-(2-ethyl-5-fluoro-1H-benzimidazol-1-yl)-1,3,5-triazine-2,4-diamine]
35 | – | 10 to 100 | CCc1nc2ccc(F)cc2n1-c1nc(N)nc(Nc2ccc(Br)cc2)n1 [Cpd 223, N-(4-bromophenyl)-6-(2-ethyl-6-fluoro-1H-benzimidazol-1-yl)-1,3,5-triazine-2,4-diamine]
36 | – | 1 to 10 | Nc1nc(Nc2ccc(Br)cc2)nc(-n2c(C3CC3)nc3ccccc32)n1 [Cpd 224, N-(4-bromophenyl)-6-(2-cyclopropyl-1H-benzimidazol-1-yl)-1,3,5-triazine-2,4-diamine]
37 | – | 100 to 3000 | Nc1nc(Nc2ccc(OC(F)(F)F)cc2)nc(-n2c(C3CC3)nc3ccccc32)n1 [Cpd 225, 6-(2-cyclopropyl-1H-benzimidazol-1-yl)-N-[4-(trifluoromethoxy)phenyl]-1,3,5-triazine-2,4-diamine]
38 | – | 1 to 10 | CCc1nc2c(F)cccc2n1-c1nc(N)nc(Nc2ccc(SC)cc2)n1 [Cpd 227, 6-(2-ethyl-4-fluoro-1H-benzimidazol-1-yl)-N-[4-(methylsulfanyl)phenyl]-1,3,5-triazine-2,4-diamine]
